According to patent publication US20180353462A1, “[…] AGENTS […] FLAVONOID DERIVATIVES TARGETING KINASES, SIRTUINS AND ONCOGENIC AGENTS FOR THE TREATMENT OF CANCERS” (priority 2015, published 2018):

Key:
[1] = biological target: T1, DYRK1/DYRK1A (Homo sapiens, UniProt Q13627); assay: Kinase competition binding assay, DYRK1/DYRK1A; settings: Table 1 kinase panel
T1 construct: made in house
Experimental: (§1) Cannabis flavonoids and their analogs were subjected to kinase inhibition assay. The compounds were first screened at a single concentration of 10 μM in the primary assay. […]. To determine the kd or IC50 values, competition binding assays were established, authenticated and executed as described previously. Fabian et al., “A Small Molecule-Kinase Interaction Map For Clinical Kinase Inhibitors.”, Nat Biotechnol, 23(3):329-36, Epub (2005). See also, Karaman et al., “A Quantitative Analysis Of Kinase Inhibitor Selectivity”, Nat. Biotechnol. […] For most assays, kinases were fused to T7 phage strains (Fabian, supra) and for the other assays, kinases were produced in HEK-293 cells after which they were tagged with DNA for quantitative PCR detection. In general, full-length constructs were used for small, single domain kinases, and catalytic domain constructs for large multi-domain kinases. The binding assays utilized streptavidin-coated magnetic beads treated with biotinylated small molecule ligands for 30 minutes at room temperature which generated affinity resins for the kinase assays. The liganded beads were blocked with excess biotin and washed with blocking buffer (SeaBlock (Pierce), 1% BSA, 0.05% Tween 20, 1 mM DTT) to remove unbound ligand and to reduce non-specific phage binding. […] Test compounds were prepared as 40× stocks in 100% DMSO and diluted directly into the assay (Final DMSO concentration=2.5%). All reactions were performed in polypropylene 384-well plates in a final volume of 0.04 ml. […] The beads were then re-suspended in elution buffer (1×PBS, 0.05% Tween 20, 0.5 μM non-biotinylated affinity ligand) and incubated at room temperature with shaking for 30 minutes. The kinase concentration in the eluates was measured by quantitative PCR. An illustration of the kinase interaction process is presented below. Kd/IC50 values were determined using a standard dose response curve using the hill equation. Curves were fitted using a non-linear least square fit with the Levenberg-Marquardt algorithm.
(§2) The compound(s) were screened at 10 μM and results for primary screen binding interactions are reported as ‘% Ctrl’, where lower numbers indicate stronger hits in the matrix.

[2] = biological target: T2, PASK (Homo sapiens, UniProt Q96RG2); assay: Kinase competition binding assay, PASK; settings: Table 1 kinase panel
T2 construct: made in house
T2 sequence (Q96RG2 whole entry): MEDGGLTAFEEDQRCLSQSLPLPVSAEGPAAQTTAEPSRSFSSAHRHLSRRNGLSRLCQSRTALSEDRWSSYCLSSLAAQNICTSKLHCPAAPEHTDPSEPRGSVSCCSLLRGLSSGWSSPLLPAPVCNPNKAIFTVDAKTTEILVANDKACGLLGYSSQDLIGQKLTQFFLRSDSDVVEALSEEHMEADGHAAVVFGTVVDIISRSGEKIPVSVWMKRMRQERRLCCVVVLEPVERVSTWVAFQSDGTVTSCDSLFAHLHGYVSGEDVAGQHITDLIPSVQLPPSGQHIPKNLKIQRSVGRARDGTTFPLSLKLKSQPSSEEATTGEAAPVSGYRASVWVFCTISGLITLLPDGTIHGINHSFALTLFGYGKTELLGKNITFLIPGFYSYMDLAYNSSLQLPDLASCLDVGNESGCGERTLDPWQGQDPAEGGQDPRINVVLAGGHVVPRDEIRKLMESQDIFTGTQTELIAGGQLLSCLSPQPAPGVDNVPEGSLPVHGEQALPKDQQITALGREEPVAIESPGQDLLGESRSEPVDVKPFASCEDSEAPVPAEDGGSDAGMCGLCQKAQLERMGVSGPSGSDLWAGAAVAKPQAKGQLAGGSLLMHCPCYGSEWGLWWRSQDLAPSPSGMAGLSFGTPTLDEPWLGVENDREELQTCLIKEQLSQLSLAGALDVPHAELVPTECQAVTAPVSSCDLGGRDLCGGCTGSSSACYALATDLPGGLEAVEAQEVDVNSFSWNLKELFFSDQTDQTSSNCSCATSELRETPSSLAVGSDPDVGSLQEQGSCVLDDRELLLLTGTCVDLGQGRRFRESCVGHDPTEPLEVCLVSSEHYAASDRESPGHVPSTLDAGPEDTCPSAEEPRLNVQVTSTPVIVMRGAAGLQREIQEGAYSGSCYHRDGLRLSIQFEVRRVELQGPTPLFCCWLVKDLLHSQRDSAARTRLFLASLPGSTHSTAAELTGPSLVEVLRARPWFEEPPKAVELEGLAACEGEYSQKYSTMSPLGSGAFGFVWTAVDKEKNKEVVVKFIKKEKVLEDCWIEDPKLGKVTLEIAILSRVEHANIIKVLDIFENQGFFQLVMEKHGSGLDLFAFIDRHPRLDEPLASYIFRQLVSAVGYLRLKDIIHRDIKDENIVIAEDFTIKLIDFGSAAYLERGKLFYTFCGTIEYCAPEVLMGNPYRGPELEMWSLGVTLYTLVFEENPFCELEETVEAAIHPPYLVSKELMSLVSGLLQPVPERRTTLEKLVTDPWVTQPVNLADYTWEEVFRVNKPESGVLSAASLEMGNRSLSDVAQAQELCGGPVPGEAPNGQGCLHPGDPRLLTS
Experimental: as §1, §2

[3] = biological target: T3, PIK4CB (Homo sapiens, UniProt Q9UBF8); assay: Kinase competition binding assay, PIK4CB; settings: Table 1 kinase panel
T3 construct: T7 phage fusion (most assays) or DNA tag for qPCR (HEK-293-made kinases); made in house
T3 sequence (Q9UBF8 whole entry, the tested form may be a part): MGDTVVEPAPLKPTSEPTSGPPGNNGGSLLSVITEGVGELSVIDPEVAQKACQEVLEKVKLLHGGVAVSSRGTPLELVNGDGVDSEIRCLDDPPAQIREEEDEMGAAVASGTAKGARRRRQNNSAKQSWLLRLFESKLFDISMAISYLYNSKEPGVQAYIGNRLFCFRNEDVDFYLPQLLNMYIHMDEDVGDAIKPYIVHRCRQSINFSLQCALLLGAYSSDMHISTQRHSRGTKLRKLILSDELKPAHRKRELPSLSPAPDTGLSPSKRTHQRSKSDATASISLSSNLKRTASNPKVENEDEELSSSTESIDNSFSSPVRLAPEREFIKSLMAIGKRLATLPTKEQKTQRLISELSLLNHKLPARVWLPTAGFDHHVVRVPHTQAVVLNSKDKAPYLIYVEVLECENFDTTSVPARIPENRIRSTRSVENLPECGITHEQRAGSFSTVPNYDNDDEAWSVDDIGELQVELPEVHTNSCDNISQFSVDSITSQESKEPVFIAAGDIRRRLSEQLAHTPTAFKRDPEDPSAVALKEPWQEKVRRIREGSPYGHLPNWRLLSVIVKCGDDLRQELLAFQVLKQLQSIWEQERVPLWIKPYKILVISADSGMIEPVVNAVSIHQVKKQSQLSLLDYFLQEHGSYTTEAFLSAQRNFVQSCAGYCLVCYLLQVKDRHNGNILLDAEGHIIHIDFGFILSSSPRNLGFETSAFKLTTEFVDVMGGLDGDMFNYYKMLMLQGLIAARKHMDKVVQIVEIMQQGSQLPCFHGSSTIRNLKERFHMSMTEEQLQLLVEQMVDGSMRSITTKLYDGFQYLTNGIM
Experimental: as §1, §2

[4] = biological target: T4, SIRT-3 (Homo sapiens, UniProt Q9NTG7); assay: Inhibition of sirtuins, SIRT-3; assay type: biochemical; settings: Table 3 SIRT
T4 sequence (Q9NTG7 1-399): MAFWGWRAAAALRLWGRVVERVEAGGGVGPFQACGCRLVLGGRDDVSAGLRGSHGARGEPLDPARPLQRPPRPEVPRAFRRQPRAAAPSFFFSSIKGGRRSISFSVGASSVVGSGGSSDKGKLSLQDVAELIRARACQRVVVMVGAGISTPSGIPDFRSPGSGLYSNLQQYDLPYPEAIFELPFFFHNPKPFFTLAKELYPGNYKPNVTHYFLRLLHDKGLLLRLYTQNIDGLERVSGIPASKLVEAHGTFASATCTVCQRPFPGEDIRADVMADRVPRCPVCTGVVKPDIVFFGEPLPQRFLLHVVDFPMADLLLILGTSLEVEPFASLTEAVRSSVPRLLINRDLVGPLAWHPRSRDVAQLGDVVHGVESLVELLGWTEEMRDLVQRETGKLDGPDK
From the text: (§3) Inhibition of Sirtuins, Matrix Metalloproteinase, Bromodomains was Also Confirmed Using Standard Protocols and the Results are Present in Table 2.

[5] = test system: A549 (Lung); assay: WST-1 anticancer cell proliferation assay, A549; assay type: cell-based; settings: 72 hours
Experimental: (§4) Bioactivity of the above-described compounds has been verified by an anticancer cell proliferation assay using the WST-1 (4-[3-(4-iodophenyl)-2-(4-nitrophenyl)-2H-5-tetrazolio]-1, 3-benzene disulfonate) colorimetric assay by Roche Life Sciences®. Anticancer activity was tested against several standard cancer cell lines including brain, breast, Kaposi sarcoma, leukemia, lung, melanoma, tenosynovial giant cell tumor, ovarian, pancreatic, colon and prostate cancer. Cells were trypsinized and plated into 96 well plates in 50 μl of media and incubated overnight. The next day approximately 18 hours after plating, 50 μl of media containing the required flavonoid-based pharmaceutical composition was added per well. Cells were plated at a density so that 72 hours post drug addition, the cells will be in log phase (500)-2000 cells/well). The compounds and extracts were solubilized in Dimethyl sulfoxide (DMSO). The cells are allowed to proliferate for 72 hours 37° C. in humidified atmosphere of 5% CO2. The experiment is terminated using WST-1 (Roche®) 10 μl per well and absorbance is read at 450 nm %690 nm. The effect of drugs on growth is assessed as percent of cell viability. The IC50 values were determined from the extract dose versus control growth curves using Graphpad Prism® software. All experiments were carried out in duplicate and the mean results determined.

[6] = test system: DLD-1 (Colon); assay: WST-1 anticancer cell proliferation assay, DLD-1; assay type: cell-based; settings: 72 hours
Experimental: as §4

[7] = test system: IGROV-1 (Ovarian); assay: WST-1 anticancer cell proliferation assay, IGROV-1; assay type: cell-based; settings: 72 hours
Experimental: as §4

[8] = test system: NCI-H69 (Small lung); assay: WST-1 anticancer cell proliferation assay, NCI-H69; assay type: cell-based; settings: 72 hours
Experimental: as §4

[9] = test system: PC-3 (Prostate); assay: WST-1 anticancer cell proliferation assay, PC-3; assay type: cell-based; settings: 72 hours
Experimental: as §4

[10] = test system: UACC-62 (Melanoma); assay: WST-1 anticancer cell proliferation assay, UACC-62; assay type: cell-based; settings: 72 hours
Experimental: as §4

[11] = biological target: BRD2 (Homo sapiens, UniProt P25440); assay: Inhibition of bromodomains, BRD2; assay type: binding; settings: Table 3 Bromodomain
BRD2, sequence (P25440 whole entry): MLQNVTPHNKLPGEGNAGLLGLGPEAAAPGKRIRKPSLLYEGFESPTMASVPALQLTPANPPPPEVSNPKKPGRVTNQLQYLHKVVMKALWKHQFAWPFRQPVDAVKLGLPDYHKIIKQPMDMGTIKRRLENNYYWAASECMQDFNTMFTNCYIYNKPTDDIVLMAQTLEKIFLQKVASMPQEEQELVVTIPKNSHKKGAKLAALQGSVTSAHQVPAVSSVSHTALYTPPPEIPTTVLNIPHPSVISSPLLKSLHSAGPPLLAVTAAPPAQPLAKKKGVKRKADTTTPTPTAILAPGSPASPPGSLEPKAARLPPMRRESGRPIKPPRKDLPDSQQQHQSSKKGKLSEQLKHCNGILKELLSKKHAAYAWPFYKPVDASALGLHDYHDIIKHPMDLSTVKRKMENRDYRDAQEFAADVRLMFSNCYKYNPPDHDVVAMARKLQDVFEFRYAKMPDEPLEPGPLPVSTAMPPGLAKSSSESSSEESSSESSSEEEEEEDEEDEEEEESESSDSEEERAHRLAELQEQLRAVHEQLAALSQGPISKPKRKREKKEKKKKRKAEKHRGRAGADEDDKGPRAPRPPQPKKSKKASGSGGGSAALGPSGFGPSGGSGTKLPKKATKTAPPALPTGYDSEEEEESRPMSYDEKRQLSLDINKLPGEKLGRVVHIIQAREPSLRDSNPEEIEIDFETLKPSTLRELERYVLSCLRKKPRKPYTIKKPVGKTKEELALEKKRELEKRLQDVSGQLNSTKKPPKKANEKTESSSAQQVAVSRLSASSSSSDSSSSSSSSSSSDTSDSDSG
From the text: as §3

[12] = biological target: BRD3 (Homo sapiens, UniProt Q15059); assay: Inhibition of bromodomains, BRD3; assay type: binding; settings: Table 3 Bromodomain
BRD3, sequence (Q15059 whole entry): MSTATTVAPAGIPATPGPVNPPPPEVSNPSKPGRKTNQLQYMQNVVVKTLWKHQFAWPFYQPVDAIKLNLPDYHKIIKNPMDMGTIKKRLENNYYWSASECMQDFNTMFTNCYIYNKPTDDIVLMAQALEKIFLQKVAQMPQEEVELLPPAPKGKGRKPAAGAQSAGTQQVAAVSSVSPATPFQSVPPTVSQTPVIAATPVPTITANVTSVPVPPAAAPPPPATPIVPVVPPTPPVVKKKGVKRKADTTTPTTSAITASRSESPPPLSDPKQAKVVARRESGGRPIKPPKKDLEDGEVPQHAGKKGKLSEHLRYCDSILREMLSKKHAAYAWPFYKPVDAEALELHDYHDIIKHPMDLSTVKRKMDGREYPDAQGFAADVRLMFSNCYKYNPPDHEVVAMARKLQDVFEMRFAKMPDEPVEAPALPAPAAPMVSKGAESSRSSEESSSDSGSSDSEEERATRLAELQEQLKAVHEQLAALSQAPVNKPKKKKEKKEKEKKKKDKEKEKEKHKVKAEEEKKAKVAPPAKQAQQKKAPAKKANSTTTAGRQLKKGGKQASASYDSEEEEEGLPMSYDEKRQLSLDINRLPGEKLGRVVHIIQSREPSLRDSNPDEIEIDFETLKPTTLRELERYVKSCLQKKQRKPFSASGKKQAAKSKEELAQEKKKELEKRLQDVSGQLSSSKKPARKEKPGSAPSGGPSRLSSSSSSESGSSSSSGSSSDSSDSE
From the text: as §3

[13] = test system: HC-1 (Leukemia); assay: WST-1 anticancer cell proliferation assay, HC-1; assay type: cell-based; settings: 72 hours
Experimental: as §4

[14] = test system: HeLa (cervical); assay: WST-1 anticancer cell proliferation assay, HeLa; assay type: cell-based; settings: 72 hours
Experimental: as §4

[15] = test system: SNU-16 (Stomach); assay: WST-1 anticancer cell proliferation assay, SNU-16; assay type: cell-based; settings: 72 hours
Experimental: as §4

[16] = test system: U2-OS (Bone); assay: WST-1 anticancer cell proliferation assay, U2-OS; assay type: cell-based; settings: 72 hours
Experimental: as §4

[17] = test system: CFPAC-1 pancreatic cancer xenograft; assay: Human pancreatic cancer xenograft CFPAC-1 in scid mice; assay type: in vivo; settings: CFPAC-1 cells implanted on scid mice
From the text: The results of the anticancer activity are presented in Tables 3 and 4 (above) and in FIG. 6, Hela cells shown at (A) and CMK cells at (B) and MV4-11 and MOLT-14 acute myeloid leukemia cells.

COc1cc(-c2cc(=O)c3c(O)c(C/C=C(\C)CCC=C(C)C)c(O)cc3o2)ccc1O [FBL-03A]
IC50 [1]: > 20000 nM
IC50 [2]: > 20000 nM
IC50 [3]: 670 nM
IC50 [4]: 94.9 µM
IC50 [5]: 17 µM
IC50 [6]: 15 µM
IC50 [7]: 29 µM
IC50 [8]: 16 µM
IC50 [9]: 26 µM
IC50 [10]: 27 µM

COc1cc(-c2cc(=O)c3c(O)c(CC=C(C)C)c(O)cc3o2)ccc1O [FBL-03B]
IC50 [1]: < 1000 nM
IC50 [2]: 2060 nM
IC50 [4]: 77 µM
IC50 [11]: 9.52 µM
IC50 [12]: 7.05 µM
IC50 [13]: 29.7 µM
IC50 [14]: 10.4 µM
IC50 [8]: 11 µM
IC50 [15]: 15 µM
IC50 [16]: 19.4 µM
inhibition of tumor compared to the control [17]: significant inhibition of tumor

COc1cc(-c2cc(=O)c3c(O)cc(O)c(C/C=C(\C)CCC=C(C)C)c3o2)ccc1O [FBL-03C]
IC50 [1]: 620 nM
IC50 [2]: > 20000 nM
IC50 [3]: > 1000 nM
IC50 [4]: 65.4 µM
IC50 [5]: 9.4 µM
IC50 [6]: 13 µM
IC50 [7]: 15 µM
IC50 [8]: 18 µM
IC50 [9]: 20 µM
IC50 [10]: 14 µM

COc1ccc(-c2cc(=O)c3c(O)c(C/C=C(\C)CCC=C(C)C)c(O)cc3o2)cc1OC [FBL-03D]
IC50 [1]: > 30000 nM
IC50 [2]: > 30000 nM
IC50 [3]: > 30000 nM

COc1cc(-c2cc(=O)c3c(O)cc(O)c(CC=C(C)C)c3o2)ccc1O [FBL-03G]
IC50 [1]: 36 nM
IC50 [2]: 116 nM
IC50 [3]: > 20000 nM
IC50 [4]: 66.4 µM
IC50 [11]: 12 µM
IC50 [12]: 8.69 µM
IC50 [13]: 5 µM
IC50 [14]: 2.53 µM
IC50 [8]: 9.5 µM
IC50 [15]: 4.09 µM
IC50 [16]: 8.7 µM
inhibition of tumor compared to the control [17]: significant inhibition of tumor
